Experimental findings from EP4678638A1, “NEW E3 UBIQUITIN LIGASE LIGAND, PROTEIN DEGRADATION AGENT AND USE THEREOF” (priority 2023, dated 2024) are described below.

The target of this assay is T1, IRAK4 (Homo sapiens, UniProt Q9NWZ3).
T1 construct: evaluate the effects of the compounds of the present disclosure on the expression of target proteins in cells; endogenous in cells; host or cells: hPBMC
T1 sequence (Q9NWZ3 1-460): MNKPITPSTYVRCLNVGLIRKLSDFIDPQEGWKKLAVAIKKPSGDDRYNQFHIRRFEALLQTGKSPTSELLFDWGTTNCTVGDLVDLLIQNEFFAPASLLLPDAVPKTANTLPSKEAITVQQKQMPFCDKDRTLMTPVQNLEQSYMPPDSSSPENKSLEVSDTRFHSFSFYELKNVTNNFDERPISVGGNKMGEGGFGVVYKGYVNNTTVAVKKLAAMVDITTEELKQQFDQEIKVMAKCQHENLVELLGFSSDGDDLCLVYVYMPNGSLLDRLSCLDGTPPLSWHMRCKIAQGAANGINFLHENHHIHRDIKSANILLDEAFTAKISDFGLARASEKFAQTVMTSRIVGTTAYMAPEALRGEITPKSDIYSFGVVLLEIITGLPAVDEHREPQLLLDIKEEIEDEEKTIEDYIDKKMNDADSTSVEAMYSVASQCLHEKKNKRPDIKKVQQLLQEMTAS
Kind of assay: Western blot degradation of IRAK4 (hPBMC). The note with it: Table D1. It is filed as cell-based. The protocol:
Conventional Western blot assay was performed to evaluate the effects of the compounds of the present disclosure on the expression of target proteins in cells.
(1) Cell Seeding and Protein Harvesting: The selected cells were processed according to the cell seeding procedure and protein harvesting procedure in Table III-2. Table III-2 Cell Seeding and Protein Harvesting Procedures
(2) To the collected supernatant, 5X SDS sample loading buffer was added, followed by denaturation at 95°C for 5 minutes. The denatured samples were then separated by SDS-PAGE electrophoresis on a polyacrylamide gel. Proteins were transferred to a nitrocellulose membrane (0.45 µm NC membrane), blocked with blocking buffer at room temperature for 1 hour, and subjected to antibody incubation and development procedures according to the antibody manufacturer's instructions (Cell Signaling Technology).
Half-Maximal Degradation Concentration value (the drug concentration required for degrading proteins by 50%, abbreviated as DC50) reads method: comparing the grayscale values of Western blot bands from drug-treated samples with those from blank DMSO-treated controls, and identifying the drug concentration range at which the grayscale value is half that of the DMSO-treated control bands.
DC50 values can be calculated using ImageJ software to measure grayscale values of Western blot bands from drug-treated samples. The concentration-response curve is fitted to estimate the drug concentration corresponding to half the grayscale value.
Target protein remaining (%) refers to the percentage of target protein remaining in hPBMC cells after treatment with protein degrader compounds.
Calculation method for target protein remaining (%): Use ImageJ software to measure grayscale values of Western blot bands from drug (protein degrader)-treated samples. The grayscale value of drug-treated bands is divided by that of internal control protein bands, and the resulting quotient is normalized to obtain the relative percentage of remaining target protein after protein degrader treatment.
Target protein degradation rate (%) = 100% - target protein remaining (%).
For orientation: In western blotting, separated proteins are transferred to a membrane and probed.

`COc1cc2nn(C3CCN(Cc4ccc(N5CCC(=O)NC5=O)cc4)CC3)cc2cc1NC(=O)c1cccc(C(F)(F)F)c1` [GT-04752, N-(2-(1-(4-(2,4-dioxotetrahydropyrimidin-1(2H)-yl)benzyl)piperidin-4-yl)-6-methoxy-2H-indazol-5-yl)-3-(trifluoromethyl)benzamide]: the “Degradation of substrate protein IRAK4 (substrate protein remaining %)” value (“Degradation … (substrate protein remaining %)” for short) is “A (A is defined as 0% ≤ substrate protein remaining % ≤ 80%)”.

Consider `COc1cc2nn(C3CCN(Cc4ccc(N5CCC(=O)NC5=O)cc4F)CC3)cc2cc1NC(=O)c1cccc(C(F)(F)F)c1` [GT-04753, N-(2-(1-(4-(2,4-dioxotetrahydropyrimidin-1(2H)-yl)-2-fluorobenzyl)piperidin-4-yl)-6-methoxy-2H-indazol-5-yl)-3-(trifluoromethyl)benzamide], for which the “Degradation … (substrate protein remaining %)” value was “A (A is defined as 0% ≤ substrate protein remaining % ≤ 80%)”. Regarding `COc1cc2nn(C3CCN(Cc4ccc(C5CCC(=O)NC5=O)cc4)CC3)cc2cc1NC(=O)c1cccc(C(F)(F)F)n1` (stereo not drawn) [GT-04761, N-(2-(1-(4-(2,6-dioxopiperidin-3-yl)benzyl)piperidin-4-yl)-6-methoxy-2H-indazol-5-yl)-6-(trifluoromethyl)picolinamide], the “Degradation … (substrate protein remaining %)” value is “A (A is defined as 0% ≤ substrate protein remaining % ≤ 80%)”. Take `COc1cc2nn(C3CCN(Cc4cccc(NC5CCC(=O)NC5=O)c4)CC3)cc2cc1NC(=O)c1cccc(C(F)(F)F)n1` (stereo not drawn) [GT-04763, N-(2-(1-(3-((2,6-dioxopiperidin-3-yl)amino)benzyl)piperidin-4-yl)-6-methoxy-2H-indazol-5-yl)-6-(trifluoromethyl)picolinamide]: the “Degradation … (substrate protein remaining %)” value is recorded as “A (A is defined as 0% ≤ substrate protein remaining % ≤ 80%)”. With `COc1cc2nn(C3CCN(Cc4cccc(N5CCC(=O)NC5=O)c4)CC3)cc2cc1NC(=O)c1cccc(C(F)(F)F)n1` [GT-04774, N-(2-(1-(3-(2,4-dioxotetrahydropyrimidin-1(2H)-yl)benzyl)piperidin-4-yl)-6-methoxy-2H-indazol-5-yl)-6-(trifluoromethyl)picolinamide], the “Degradation … (substrate protein remaining %)” value was “A (A is defined as 0% ≤ substrate protein remaining % ≤ 80%)”. Then `COc1ccc2cn(C3CCN(Cc4ccc(C5CCC(=O)NC5=O)cc4)CC3)nc2c1NC(=O)c1cccc(C(F)(F)F)c1` (stereo not drawn) [GT-04813, N-(2-(1-(4-(2,6-dioxopiperidin-3-yl)benzyl)piperidin-4-yl)-6-methoxy-2H-indazol-7-yl)-3-(trifluoromethyl)benzamide], with “A (A is defined as 0% ≤ substrate protein remaining % ≤ 80%)”; and `COc1cc2nn(C3CCN(Cc4ccc(N5CCC(=O)NC5=O)nc4)CC3)cc2cc1NC(=O)c1cccc(C(F)(F)F)c1` [GT-04879, N-(2-(1-((6-(2,4-dioxotetrahydropyrimidin-1(2H)-yl)pyridin-3-yl)methyl)piperidin-4-yl)-6-methoxy-2H-indazol-5-yl)-3-(trifluoromethyl)benzamide], with “A (A is defined as 0% ≤ substrate protein remaining % ≤ 80%)”. Turning to `COc1ccc2cn(C3CCN(Cc4ccc(N5CCC(=O)NC5=O)nc4)CC3)nc2c1NC(=O)c1cccc(C(F)(F)F)c1` [GT-04887, N-(2-(1-((6-(2,4-dioxotetrahydropyrimidin-1(2H)-yl)pyridin-3-yl)methyl)piperidin-4-yl)-6-methoxy-2H-indazol-7-yl)-3-(trifluoromethyl)benzamide], the “Degradation … (substrate protein remaining %)” value is reported as “A (A is defined as 0% ≤ substrate protein remaining % ≤ 80%)”. Regarding `O=C1CCC(Nc2cccc(CN3CCN(c4ccc5c(c4)nc(NC(=O)c4cccc(C(F)(F)F)c4)n5[C@H]4CC[C@@H](CO)CC4)CC3)c2)C(=O)N1` (stereo partly drawn) [GT-04985, N-(5-(4-(3-((2,6-dioxopiperidin-3-yl)amino)benzyl)piperazin-1-yl)-1-((1s,4s)-4-(hydroxymethyl)cyclohexyl) -1H-benzo[d]imidazol-2-yl)-3-(trifluoromethyl)benzamide], the “Degradation … (substrate protein remaining %)” value is listed as “A (A is defined as 0% ≤ substrate protein remaining % ≤ 80%)”. The same measure for `O=C1CCN(c2ccc(CN3CCC(n4cc(NC(=O)c5cnn6ccc(N7C[C@H]8C[C@@H]7CO8)nc56)c(C(F)F)n4)CC3)cn2)C(=O)N1` [GT-05054, 5-((1R,4R)-2-oxa-5-azabicyclo[2.2.1]heptan-5-yl)-N-(3-(difluoromethyl)-1-(1-((6-(2,4-dioxotetrahydropyrimidin-1(2H)-yl)pyridin-3-yl)methyl)piperidin-4-yl)-1H-pyrazol-4-yl)pyrazolo[1,5-a]pyrimidine-3-carboxamide]: “A (A is defined as 0% ≤ substrate protein remaining % ≤ 80%)”; for `O=C1CCN(c2cccc(CN3CCC(n4cc(NC(=O)c5coc(-c6ccnc(NCC(F)(F)F)c6)n5)c(C(F)F)n4)CC3)c2)C(=O)N1` [GT-05190, N-(3-(difluoromethyl)-1-(1-(3-(2,4-dioxotetrahydropyrimidin-1(2H)-yl)benzyl)piperidin-4-yl)-1H-pyrazol-4-yl)-2-(2-((2,2,2-trifluoroethyl)amino)pyridin-4-yl)oxazole-4-carboxamide]: “A (A is defined as 0% ≤ substrate protein remaining % ≤ 80%)”; for `CC(C)(O)c1cc2nc(C3CCN(Cc4ccc(C5CCC(=O)NC5=O)cc4)CC3)oc2cc1NC(=O)c1cccc(C(F)(F)F)n1` (stereo not drawn) [GT-05771, N-(2-(1-(4-(2,6-dioxopiperidin-3-yl)benzyl)piperidin-4-yl)-5-(2-hydroxypropan-2-yl)benzo[d]oxazol-6-yl)-6-(trifluoromethyl)picolinamide]: “A (A is defined as 0% ≤ substrate protein remaining % ≤ 80%)”. The same measure for `Cc1cc(-c2nc(C(=O)Nc3cc4oc(N5CCN(Cc6ccc(N7CCC(=O)NC7=O)cc6)CC5)nc4nc3N3CC[C@@H](O)C3)co2)ccn1` [GT-05807, (R)-N-(2-(4-(4-(2,4-dioxotetrahydropyrimidin-1(2H)-yl)benzyl)piperazin-1-yl)-5-(3-hydroxypyrrolidin-1-yl)oxazolo[4,5-b]pyridin-6-yl)-2-(2-methylpyridin-4-yl)oxazole-4-carboxamide]: “A (A is defined as 0% ≤ substrate protein remaining % ≤ 80%)”; for `CC(C)Nc1cc(-n2ccc3cc(C#N)cnc32)ncc1C(=O)NC1CCN(Cc2cc(N3CCC(=O)NC3=O)ncc2F)CC1` [GT-07408, 6-(5-cyano-1H-pyrrolo[2,3-b]pyridin-1-yl)-N-(1-((2-(2,4-dioxotetrahydropyrimidin-1(2H)-yl)-5-fluoropyridin-4-yl)methyl)piperidin-4-yl)-4-(isopropylamino)nicotinamide]: “A (A is defined as 0% ≤ substrate protein remaining % ≤ 80%)”. `CC(C)Nc1cc(-n2ccc3cc(C#N)cnc32)ncc1C(=O)NC1CCN(Cc2ccnc(N3CCC(=O)NC3=O)c2)CC1` [GT-07409, 6-(5-cyano-1H-pyrrolo[2,3-b]pyridin-1-yl)-N-(1-((2-(2,4-dioxotetrahydropyrimidin-1(2H)-yl)pyridin-4-yl)methyl)piperidin-4-yl)-4-(isopropylamino)nicotinamide]: the “Degradation … (substrate protein remaining %)” value is on record as “A (A is defined as 0% ≤ substrate protein remaining % ≤ 80%)”.
